Where two headings read alike, the source gives them in different places.
Experiments:
[1] = target: T1, HCV NS5B RdRp genotype 1b (Hepatitis C virus genotype 1b, UniProt Q9WMX2); test: HCV NS5B RdRp enzyme assay (standard / modified); format: biochemical
T1 construct: The protein was expressed with an 18 amino acid C-terminal truncation to enhance the solubility; made in house; host or cells: E. coli BL21(DE3), pET21a vector
Experimental: HCV NS5B RdRp Cloning, Expression, and Purification.
The cDNA encoding the NS5B protein of HCV, genotype 1b, was cloned into the pET21a expression vector. The protein was expressed with an 18 amino acid C-terminal truncation to enhance the solubility. The E. coli competent cell line BL21(DE3) was used for expression of the protein. Cultures were grown at 37° C. for ˜4 hours until the cultures reached an optical density of 2.0 at 600 nm. The cultures were cooled to 20° C. and induced with 1 mM IPTG. Fresh ampicillin was added to a final concentration of 50 μg/ml and the cells were grown overnight at 20° C.
The lysis buffer consisted of 20 mM Tris-HCl, pH 7.4, 500 mM NaCl, 0.5% triton X-100, 1 mM DTT, 1 mM EDTA, 20% glycerol, 0.5 mg/ml lysozyme, 10 mM MgCl2, 15 ug/ml deoxyribonuclease I, and Complete TM protease inhibitor tablets (Roche). After addition of the lysis buffer, frozen cell pellets were resuspended using a tissue homogenizer. To reduce the viscosity of the sample, aliquots of the lysate were sonicated on ice using a microtip attached to a Branson sonicator. The sonicated lysate was centrifuged at 100,000×g for 1 hr at 4° C. and filtered through a 0.2 μm filter unit (Corning).
The protein was purified using two sequential chromatography steps: Heparin sepharose CL-6B and polyU sepharose 4B (Pharmacia). The chromatography buffers were identical to the lysis buffer but contained no lysozyme, deoxyribonuclease I, MgCl2 or protease inhibitor and the NaCl concentration of the buffer was adjusted according to the requirements for charging the protein onto the column. Each column was eluted with a NaCl gradient which varied in length from 5-50 column volumes depending on the column type. […] The enzyme was aliquoted and stored at −80° C.
Standard HCV NS5B RdRp Enzyme Assay.
HCV RdRp genotype 1b assays were run in a final volume of 60 μl in 96 well plates (Corning 3600). The assay buffer is composed of 20 mM Hepes, pH 7.5, 2.5 mM KCl, 2.5 mM MgCl2, 1 mM DTT, 1.6 U RNAse inhibitor (Promega N2515), 0.01 mg/ml BSA (Sigma B6917), and 2% glycerol. All compounds were serially diluted (3-fold) in DMSO and diluted further in water such that the final concentration of DMSO in the assay was 2%. HCV RdRp genotype 1b enzyme was used at a final concentration of 28 nM. A polyA template was used at 6 nM, and a biotinylated oligo-dT12 primer was used at 180 nM final concentration. Template was obtained commercially (Amersham 27-4110). Biotinylated primer was prepared by Sigma Genosys. 3H-UTP was used at 0.6 μCi (0.29 μM total UTP). Reactions were initiated by the addition of enzyme, incubated at 30° C. for 60 min, and stopped by adding 25 μl of 50 mM EDTA containing SPA beads (4 μg/μl, Amersham RPNQ 0007). Plates were read on a Packard Top Count NXT after >1 hr incubation at room temperature.
Modified HCV NS5B RdRp Enzyme Assay.
A modified enzyme assay was performed essentially as described for the standard enzyme assay except for the following: The biotinylated oligo dT12 primer was precaptured on streptavidin-coated SPA beads by mixing primer and beads in assay buffer and incubating at room temperature for one hour. Unbound primer was removed after centrifugation. The primer-bound beads were resuspended in 20 mM Hepes buffer, pH 7.5 and used in the assay at final concentrations of 20 nM primer and 0.67 μg/μl beads. Order of addition in the assay: enzyme (1.75 nM) was added to diluted compound followed by the addition of a mixture of template (0.36 nM), 3H-UTP (0.6 μCi, 0.29 μM), and primer-bound beads, to initiate the reaction; concentrations given are final. Reactions were allowed to proceed for 4 hours at 30° C.
IC50 values for compounds were determined using seven different [I].

HCV replicon cells = test: HCV replicon FRET / luciferase assay; format: cell-based, Hepatitis C virus
Experimental: The HCV FRET screening assay was performed in 96-well cell culture plates. The FRET peptide (Anaspec, Inc.) (Taliani et al., Anal. Biochem. 1996, 240, 60-67) contains a fluorescence donor, EDANS, near one end of the peptide and an acceptor, DABCYL, near the other end. The fluorescence of the peptide is quenched by […] resonance energy transfer (RET) between the donor and the acceptor, but as the NS3 protease cleaves the peptide the products are released from RET quenching and the fluorescence of the donor becomes apparent. The assay reagent was made as follows: 5× cell Luciferase cell culture lysis reagent from Promega (#E153A) diluted to 1× with dH2O, NaCl added to 150 mM final, the FRET peptide diluted to 20 μM final from a 2 mM stock.
To prepare plates, HCV replicon cells, with or without a Renilla luciferase reporter gene, were trypsinized and plated in a 96-well plate with titrated test compounds added in columns 3 through 12; columns 1 and 2 contained a control compound (HCV control inhibitor), and the bottom row contained cells with DMSO only. The plates were then placed in a CO2 incubator at 37° C.
Subsequent to addition of the test compounds described above (FRET Assay Preparation), at various times the plate was removed and Alamar blue solution (Trek Diagnostics, #00-100) was added to measure cellular toxicity. After reading in a Cytoflour 4000 instrument (PE Biosystems), plates were rinsed with PBS and then used for FRET assay by the addition of 30 ul of the FRET peptide assay reagent described above (FRET Assay Preparation) per well. The plate was then placed into the Cytoflour 4000 instrument which had been set to 340 excite/490 emission, automatic mode for up to 20 cycles and the plate read in a kinetic mode. Typically, the signal to noise using an endpoint analysis after the reads was at least three-fold. Alternatively, after Alamar blue reading, plates were rinsed with PBS, then used for luciferase assay using the Promega Dual-Glo Luciferase Assay System or the Promega EnduRen Live Cell Substrate assay.
Compound analysis was performed by quantification of the relative HCV replicon inhibition and the relative cytotoxicity values. To calculate cytoxicity values, the average Alamar Blue fluorescence signals from the control wells were set as 100% non-toxic. The individual signals in each of the compound test wells were then divided by the average control signal and multiplied by 100% to determine […]. To calculate the HCV replicon inhibition values, an average background value was obtained from the two wells containing the highest amount of HCV control inhibitor at the end of the assay period. These numbers were similar to those obtained from naïve Huh-7 cells. The background numbers were then subtracted from the average signal obtained from the control wells and this number was used as 100% activity. The individual signals in each of the compound test wells were then divided by the averaged control values after background subtraction and multiplied by 100% to determine percent activity. […] The two numbers generated for the compound plate, percent cytoxicity and percent activity, were used to determine compounds of interest for further analysis.

[2] = HCV replicon cells, FRET or luciferase activity

T1 sequence (Q9WMX2 2420-2992): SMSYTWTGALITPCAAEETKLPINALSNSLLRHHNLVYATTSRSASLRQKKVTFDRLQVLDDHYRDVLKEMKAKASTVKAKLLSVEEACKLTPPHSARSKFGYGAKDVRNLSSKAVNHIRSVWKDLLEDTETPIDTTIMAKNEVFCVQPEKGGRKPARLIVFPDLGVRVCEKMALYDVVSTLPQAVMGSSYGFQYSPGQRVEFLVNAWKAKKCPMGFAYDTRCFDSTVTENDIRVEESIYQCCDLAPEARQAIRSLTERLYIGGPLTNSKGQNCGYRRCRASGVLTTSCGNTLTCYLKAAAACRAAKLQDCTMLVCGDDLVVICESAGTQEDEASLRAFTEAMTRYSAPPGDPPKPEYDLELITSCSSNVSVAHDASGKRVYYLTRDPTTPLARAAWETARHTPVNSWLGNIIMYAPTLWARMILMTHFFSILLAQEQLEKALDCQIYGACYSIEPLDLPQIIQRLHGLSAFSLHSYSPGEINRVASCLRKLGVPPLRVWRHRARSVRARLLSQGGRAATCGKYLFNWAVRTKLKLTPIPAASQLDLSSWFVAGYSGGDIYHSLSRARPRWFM

Row | Compound | IC50 [1] [nM] | EC50 (HCV replicon cells; Hepatitis C virus) [nM] | EC50 (HCV replicon cells; Hepatitis C virus, HCV replicon cells, FRET or luciferase activity, read-out: EC50) [nM] | EC50 (HCV replicon cells; [2]) [nM]
1 | COc1ccc2c(c1)C1CC1(C(=O)N1CC3CCC(C1)N3C)Cn1c-2c(C2CCCCC2)c2ccc(C(=O)NS(=O)(=O)N(C)C)cc21 (stereo not shown) | 1 to 500 | 1 to 500 | – | –
2 | COc1ccc2c(c1)C1CC1(C(=O)N1[C@@H]3CC[C@H]1CN(S(C)(=O)=O)C3)Cn1c-2c(C2CCCCC2)c2ccc(C(=O)NS(=O)(=O)N(C)C)cc21 (stereo partly shown) | 1 to 500 | 1 to 500 | – | –
3 | CN1CC2CCC(C1)N2C(=O)C1=Cc2c(OC(F)(F)F)cccc2-c2c(C3CCCCC3)c3ccc(C(=O)NS(=O)(=O)N(C)C)cc3n2C1 | > 500 | > 500 | – | –
4 | COC(=O)c1ccc2c(C3CCCCC3)c3n(c2c1)CC1(C(=O)N2C4CCC2CN(C)C4)CC1c1c(OC)cccc1-3 (stereo not shown) | > 500 | – | – | –
5 | COc1cccc2c1C1CC1(C(=O)N1C3CCC1CN(C)C3)Cn1c-2c(C2CCCCC2)c2ccc(C(=O)O)cc21 (stereo not shown) | 1 to 500 | 1 to 500 | – | –
6 | COC(=O)c1ccc2c(C3CCCCC3)c3n(c2c1)CC1(C(=O)N2C4CCC2CN(C)C4)CC1c1c(OC(F)(F)F)cccc1-3 (stereo not shown) | > 500 | – | – | –
7 | COc1cccc2c1C1CC1(C(=O)N1C3CCC1CN(C)C3)Cn1c-2c(C2CCCCC2)c2ccc(C(=O)NS(=O)(=O)N(C)C)cc21 (stereo not shown) | 1 to 500 | > 500 | – | –
8 | CN1CC2CCC(C1)N2C(=O)C12CC1c1c(OC(F)(F)F)cccc1-c1c(C3CCCCC3)c3ccc(C(=O)O)cc3n1C2 (stereo not shown) | 1 to 500 | 1 to 500 | – | –
9 | CN1CC2CCC(C1)N2C(=O)C12CC1c1c(OC(F)(F)F)cccc1-c1c(C3CCCCC3)c3ccc(C(=O)NS(=O)(=O)N(C)C)cc3n1C2 (stereo not shown) | 1 to 500 | 1 to 500 | – | –
10 | COc1ccc2c(c1)C1CC1(C(=O)N1[C@@H]3CC[C@H]1CN(C(=O)N(C)C)C3)Cn1c-2c(C2CCCCC2)c2ccc(C(=O)NS(=O)(=O)N(C)C)cc21 (stereo partly shown) | 1 to 500 | 1 to 500 | – | –
11 | COc1ccc2c(c1)C1CC1(C(=O)N1[C@@H]3CC[C@H]1CN(C(=O)OCc1ccccc1)C3)Cn1c-2c(C2CCCCC2)c2ccc(C(=O)NS(=O)(=O)N(C)C)cc21 (stereo partly shown) | 1 to 500 | 1 to 500 | – | –
12 | COc1ccc2c(c1)C1CC1(C(=O)N1[C@@H]3CC[C@H]1CN(Cc1ccccc1)C3)Cn1c-2c(C2CCCCC2)c2ccc(C(=O)NS(=O)(=O)N(C)C)cc21 (stereo partly shown) | 1 to 500 | 1 to 500 | – | –
13 | COc1ccc2c(c1)C1CC1(C(=O)N1[C@@H]3CC[C@H]1CN(C(C)=O)C3)Cn1c-2c(C2CCCCC2)c2ccc(C(=O)NS(=O)(=O)N(C)C)cc21 (stereo partly shown) | 1 to 500 | 1 to 500 | – | –
14 | COc1ccc2c(c1)[C@@H]1C[C@]1(C(=O)N1[C@@H]3CC[C@H]1CN(S(C)(=O)=O)C3)Cn1c-2c(C2CCCCC2)c2ccc(C(=O)NS(=O)(=O)N(C)C)cc21 | 1 to 500 | 1 to 500 | – | –
15 | COc1ccc2c(c1)C1CC1(C(=O)N1C3CCC1CN(C)C3)Cn1c-2c(C2CCCCC2)c2ccc(C(=O)NS(=O)(=O)C(C)C)cc21 (stereo not shown) | – | 1 to 500 | – | –
16 | COc1ccc2c(c1)[C@H]1C[C@@]1(C(=O)N1C3CCC1CN(C)C3)Cn1c-2c(C2CCCCC2)c2ccc(C(=O)NS(=O)(=O)C(C)C)cc21 | – | 1 to 500 | – | –
17 | COc1ccc2c(c1)[C@@H]1C[C@]1(C(=O)N1C3CCC1CN(C)C3)Cn1c-2c(C2CCCCC2)c2ccc(C(=O)NS(=O)(=O)C(C)C)cc21 | – | 1 to 500 | – | –
18 | COc1ccc2c(c1)C1CC1(C(=O)N1C3CCC1CN(C)C3)Cn1c-2c(C2CCCCC2)c2ccc(C(=O)NS(=O)(=O)C3CCCC3)cc21 (stereo not shown) | – | 1 to 500 | – | –
19 | COc1ccc2c(c1)C1CC1(C(=O)N1C3CCC1CN(C)C3)Cn1c-2c(C2CCCCC2)c2ccc(C(=O)NS(=O)(=O)CC(C)C)cc21 (stereo not shown) | – | – | 1 to 500 | –
20 | CCCS(=O)(=O)NC(=O)c1ccc2c(C3CCCCC3)c3n(c2c1)CC1(C(=O)N2C4CCC2CN(C)C4)CC1c1cc(OC)ccc1-3 (stereo not shown) | – | 1 to 500 | – | –
21 | CCC(C)S(=O)(=O)NC(=O)c1ccc2c(C3CCCCC3)c3n(c2c1)CC1(C(=O)N2C4CCC2CN(C)C4)CC1c1cc(OC)ccc1-3 (stereo not shown) | – | 1 to 500 | – | –
22 | COc1ccc2c(c1)C1CC1(C(=O)N1C3CCC1CN(C)C3)Cn1c-2c(C2CCCCC2)c2ccc(C(=O)NS(=O)(=O)C(C)(C)C)cc21 (stereo not shown) | – | 1 to 500 | – | –
23 | CN1CC2CCC(C1)N2C(=O)C12CC1c1ccccc1-c1c(C3CCCCC3)c3ccc(C(=O)NS(=O)(=O)N(C)C)cc3n1C2 (stereo not shown) | – | 1 to 500 | – | –
24 | COc1ccc2c(c1)C1CC1(C(=O)N1C3CCC1CN(C)C3)Cn1c-2c(C2CCCCC2)c2ccc(C(=O)NS(=O)(=O)CCC(F)(F)F)cc21 (stereo not shown) | – | 1 to 500 | – | –
25 | COc1ccc2c(c1)C1CC1(C(=O)N1C3CCC1CN(C)C3)Cn1c-2c(C2CCCCC2)c2ccc(C(=O)NS(=O)(=O)CC(F)(F)F)cc21 (stereo not shown) | – | 1 to 500 | – | –
26 | CC(C)S(=O)(=O)NC(=O)c1ccc2c(C3CCCCC3)c3n(c2c1)CC1(C(=O)N2C4CCC2CN(C)C4)CC1c1ccccc1-3 (stereo not shown) [drawing 126] | – | 1 to 500 | – | –
27 | CC(C)S(=O)(=O)NC(=O)c1ccc2c(C3CCCCC3)c3n(c2c1)CC1(C(=O)N2C4CCC2CN(C)C4)CC1c1ccccc1-3 (stereo not shown) [drawing 130] | – | – | – | 1 to 500
28 | CC(C)S(=O)(=O)NC(=O)c1ccc2c(C3CCCCC3)c3n(c2c1)CC1(C(=O)N2C4CCC2CN(C)C4)CC1c1ccccc1-3 (stereo not shown) [drawing 131] | – | – | – | 1 to 500

Reference: patent US20130171098A1, “Cyclopropyl Fused Indolobenzazepine HCV NS5B Inhibitors” (priority 2006, published 2013)
